Assay results published in patent US20030181436A1, “Treatment for AIDS, HIV, and other related diseases and compounds for use therewith” (priority 2001, published 2003).

Columns and labels:
Assay type in all cases: cell-based
HIV = assay: PBMC time of addition assay
From the text: FIGS. 18 and 19 show the results of the time of addition assay with the K and Z compound. In time of addition assays the timed addition of compounds after initial infection allows the identification of specific stages of virus replication. This is seen with the positive control compound AZT. AZT is a reverse transcriptase inhibitor. […] Thus it has an antiviral target that is occurring after completion of reverse transcription. […] In general since this time of addition uses multiple rounds of infection in the PBMCs versus a single round in cell lines systems, lower concentrations of compound will often shift the curve to the left. This is seen in FIG. 18.

[1] = test system: HIV-1 attachment to HeLa CD4 LTR B-gal cells; assay: Inhibition of attachment assay; conditions: for IC50: attachment assay
Protocol: The attachment assay was performed with the HeLa CD4 LTR B-gal cells available from the AIDS Research and Reference Reagent Repository. […] HeLa CD4 LTR B-gal cells express cell surface CD4 and contain an LTR B-galactosidase reporter construct. Upon infection either the Tat protein incorporated into the virion or new Tat produced following virus integration and transcription trans-activate the LTR B-gal reporter, leading to expression of the B-galactosidase enzyme. HeLa CD4 LTR B-gal cells are routinely cultured with the required selection antibiotics and scrended for mycoplasma contamination. Twenty-four h prior to initiation of the assay cells were trypsinized, counted and 1×10^4 cells placed in a 0.2 cm well in media without selection antibiotics. Media was removed and compound media placed on the cells and incubated for 15 to 30 min at 37° C. A known titer of virus was then added to the wells and the incubation continued for 1 h. At the end of the incubation the wells were washed 6 times with media and the culture continued for 48 h. At 48 h the wells were washed one time with PBS and B-galactosidase enzyme expression determined by chemiluminescence per manufacturers instructions (Tropix Gal-screen TM, Tropix, Bedford, Mass.). Compound toxicity was monitored on sister plates using MTS dye reduction. (See Tables 14 through 16 and FIGS. 21 and 22).

[2] = test system: SK-1 strain of HIV in CEM-SS cells; assay: Chronically infected CEM/SK-1 cell assay, RT values
Protocol: Reverse transcriptase activity was measured in cell-free supernatants. Tritiated thymidine triphosphate (NEN) (TTP) was resuspended in distilled H2O at 5 Ci/mL. Poly rA and oligo dT were prepared as a stock solution which was kept at −20° C. The RT reaction buffer was prepared fresh on a daily basis and consists of 125 μL 1.0 M EGTA, 125 μL dH2O, 110 μL 10% SDS, 50 μL 1.0 M Tris (pH 7.4), 50 μL, 1.0 M DTT, and 40 μL 1.0 M MgCl2. These three solutions were mixed together in a ratio of 2 parts TTP, 1 part poly rA:oligo dT, and 1 part reaction buffer. Ten microliters of this reaction mixture was placed in a round bottom microtiter plate and 15 μL of virus containing supernatant was added and mixed. The plate was incubated at 37° C. in a water bath with a solid support to prevent submersion of the plate and incubated for 60 minutes. Following reaction, the reaction volume was spotted onto pieces of DE81 paper, washed 5 times for 5 minutes each in a 5% sodium phosphate buffer, 2 times for 1 minute each in distilled water, 2 times for 1 minute each in 70% ethanol, and then dried. Opti-Fluor O was added to each sample and incorporated radioactivity was quantitated utilizing a Wallac 1450 Microbetaplus liquid scintillation counter.
(§1) The chronically infected CEM cells were cultured and the assay performed in RPMI 1640 supplemental with 10% Fetal Bovine Serum (heat inactivated), 2 mM L-glutamine, 100 U/mL penicillin, […] and 10 ug/mL gentamycin. On day 3 cell-free supernatants were collected and cell viability measured by MTS dye reduction. (See Table 13 and FIG. 20).

[3] = test system: CEM-SS cells chronically infected with SK-1; assay: Chronically infected CEM/SK-1 cell assay, cell viability by MTS
Protocol: At assay termination the assay plates were stained with the soluble tetrazolium-based dye MTS (CellTiter® Reagent, Promega) to determined cell viability and quantify compound toxicity. […] At termination of the assay 20 μL of MTS reagent was added per well. The wells were incubated for 4 h at 37° C., 5% CO2. Adhesive plate scalers were used in place of the lids, the sealed plate was inverted several times to mix the soluble formazan product and the plate was read spectrophotometrically at 490 nm with a 650 nm reference wavelength on a Molecular Devices Vmax plate reader.
as §1, with “reduction.” for “reduction. (See Table 13 and FIG. 20).”

Potassium Iodiscorbate [Compound K]
suppression of virus replication (HIV; 6.4 μg/ml, added at 4 h): no inhibition
suppression of virus replication (HIV; 6.4 μg/ml, added at 9 h): 71%
suppression of virus replication (HIV; 64 μg/ml, added 49 h post infection): 75%
suppression of virus replication (HIV; 64 μg/ml, added at 4 h): 35%
suppression of virus replication (HIV; 64 μg/ml, added at 9 h): 87%

Zinc Iodiscorbate [Compound Z]
efficacy in HeLa CD4 LTR β-gal attachment assay [1]: inactive
% VC ([1]; 0.32 μG/Ml): 90.2%
% VC ([1]; 1 μG/Ml): 94.8%
% VC ([1]; 3.2 μG/Ml): 74.5%
% VC ([1]; 10 μG/Ml): 62.4%
% VC ([1]; 32 μG/Ml): 54.4%
% VC ([1]; 100 μG/Ml): 66.8%
IC50 [1]: >100 µg/mL
IC50 ([1]; listed as COMPOUND Z): IC50 (μG/mL) = >100 μg/mL
% VC ([2]; 0.625 μG/Ml): 95.1%
RT VALUES (cpm) MEAN ([2]; 0.625 μG/Ml): 9997.0 cpm
% VC ([2]; 2 μG/Ml): 96.8%
RT VALUES (cpm) MEAN ([2]; 2 μG/Ml): 10178.7 cpm
% VC ([2]; 6.25 μG/Ml): 16.8%
RT VALUES (cpm) MEAN ([2]; 6.25 μG/Ml): 1761.0 cpm
% VC ([2]; 20 μG/Ml): 1.2%
RT VALUES (cpm) MEAN ([2]; 20 μG/Ml): 128.0 cpm
% VC ([2]; 62.5 μG/Ml): 1.0%
RT VALUES (cpm) MEAN ([2]; 62.5 μG/Ml): 104.0 cpm
% VC ([2]; 200 μG/Ml): 0.5%
RT VALUES (cpm) MEAN ([2]; 200 μG/Ml): 48.0 cpm
IC50 ([2]; CEMSK1 chronic infection): IC50 (μG/Ml) = 4.49
TOXICITY VALUES (MTS) MEAN ([3]; 0.625 μG/Ml): 1.757 O. D.
TOXICITY VALUES (MTS) MEAN ([3]; 2 μG/Ml): 1.655 O. D.
% CC ([3]; 6.25 μG/Ml): 35.8%
TOXICITY VALUES (MTS) MEAN ([3]; 6.25 μG/Ml): 0.631 O. D.
% CC ([3]; 20 μG/Ml): 31.4%
TOXICITY VALUES (MTS) MEAN ([3]; 20 μG/Ml): 0.553 O. D.
% CC ([3]; 62.5 μG/Ml): 17.1%
TOXICITY VALUES (MTS) MEAN ([3]; 62.5 μG/Ml): 0.301 O. D.
% CC ([3]; 200 μG/Ml): 0.6%
TOXICITY VALUES (MTS) MEAN ([3]; 200 μG/Ml): 0.011 O. D.
TC50 ([3]; CEMSK1 chronic infection): ITC50 (ug/ml) = 5.22
